Laboratory results reported in patent publication US12168012B2, “NLRP3 inflammasome inhibitors” (Novartis AG, priority 2018, dated 2024).
Structures can show the parent of a compound that is named as a salt.

Tests used:
NLRP3 inflammasome = test: IL-1β secretion assay; assay type: cell-based; conditions: Homo sapiens, THP-1, 3 h, PMA-differentiated THP-1 cells, 15 μM nigericin, HTRF
Method in brief: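 PMA-differentiated THP-1 cells stimulated with nigericin to trigger NLRP3-dependent IL-1β secretion, measured by HTRF after 3 h. Viability/pyroptosis monitored with PrestoBlue. IC50 from logistic fit of % inhibition vs concentration with Hill coefficient.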

[1] = tested on: NF-kB-dependent TNF-α secretion; test: TNF-α secretion assay (counterscreen); assay type: cell-based; conditions: Homo sapiens; THP-1 cells, Pam3CSK4-stimulated, 3 hours, HTRF
Method in brief: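 Undifferentiated THP-1 cells, rested overnight, given compound then stimulated with 1 μg/mL LPS or 100 ng/mL Pam3CSK4 for 3 hours. Supernatant TNF-α measured by HTRF; IC50 from four-parameter logistic fit of % inhibition versus concentration, with viability monitored.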

CC(C)c1nn(CC(=O)NC[C@H](C)O)c(=O)c2cc3sc(Cl)cc3n12 [Ex 69, (S)-2-(2-Chloro-5-isopropyl-8-oxothieno[2′,3′:4,5]pyrrolo[1,2-d][1,2,4]triazin-7(8H)-yl)-N-(2-hydroxypropyl)acetamide]
IC50 (NLRP3 inflammasome): 58.8 nM
IC50 [1]: > 100000 nM

CC(C)c1nn(CC(=O)Nc2ccncn2)c(=O)c2cc3sc(Cl)cc3n12 [Ex 1, 2-(2-Chloro-5-isopropyl-8-oxothieno[2′,3′:4,5]pyrrolo[1,2-d][1,2,4]triazin-7(8H)-yl)-N-(pyrimidin-4-yl)acetamide]
IC50 (NLRP3 inflammasome): 20.2 nM
IC50 [1]: > 100000 nM

CC(C)c1nn(CC(=O)Nc2ccc(F)cc2F)c(=O)c2cc3sc(Cl)cc3n12 [Ex 58, 2-(2-Chloro-5-isopropyl-8-oxothieno[2′,3′:4,5]pyrrolo[1,2-d][1,2,4]triazin-7(8H)-yl)-N-(2,4-difluorophenyl)acetamide]
IC50 (NLRP3 inflammasome): 176 nM
IC50 [1]: > 100000 nM

CC(C)c1nn(CC(=O)N[C@H]2CC[C@H](C(=O)O)CC2)c(=O)c2cc3sc(Cl)cc3n12 [Ex 53, (1r,4r)-4-(2-(2-Chloro-5-isopropyl-8-oxothieno[2′,3′:4,5]pyrrolo[1,2-d][1,2,4]triazin-7(8H)-yl)acetamido)cyclohexane-1-carboxylic acid]
IC50 (NLRP3 inflammasome): 34.2 nM
IC50 [1]: > 100000 nM

Cc1cc2c(cc3c(=O)n(CC(=O)N[C@@H]4CCC(=O)NC4)nc(C(C)C)n32)s1 [Ex 39, (R)-2-(5-Isopropyl-2-methyl-8-oxothieno[2′,3′:4,5]pyrrolo[1,2-d][1,2,4]triazin-7(8H)-yl)-N-(6-oxopiperidin-3-yl)acetamide]
IC50 (NLRP3 inflammasome): 540 nM
IC50 [1]: > 100000 nM

CC(C)c1nn(CC(=O)N[C@@H]2CCCN(CCF)C2)c(=O)c2cc3scnc3n12 [Ex 89, (R)-N-(1-(2-Fluoroethyl)piperidin-3-yl)-2-(5-isopropyl-8-oxothiazolo[5′,4′:4,5]pyrrolo[1,2-d][1,2,4]triazin-7(8H)-yl)acetamide]
IC50 (NLRP3 inflammasome): 24.8 nM
IC50 [1]: > 100000 nM

CC(C)c1nn(CC(=O)N[C@@H]2CCCN(CC(C)(C)O)C2)c(=O)c2cc3sc(Cl)cc3n12 [Ex 130, (R)-2-(2-Chloro-5-isopropyl-8-oxothieno[2′,3′:4,5]pyrrolo[1,2-d][1,2,4]triazin-7(8H)-yl)-N-(1-(2-hydroxy-2-methylpropyl)piperidin-3-yl)acetamide]
IC50 (NLRP3 inflammasome): 20.4 nM
IC50 [1]: > 100000 nM

CC(C)(O)c1nn(CC(=O)NC2CC2)c(=O)c2cc3sc(Cl)cc3n12 [Ex 62, 2-(2-Chloro-5-(2-hydroxypropan-2-yl)-8-oxothieno[2′,3′:4,5]pyrrolo[1,2-d][1,2,4]triazin-7(8H)-yl)-N-cyclopropylacetamide]
IC50 (NLRP3 inflammasome): 76.1 nM
IC50 [1]: > 100000 nM

CC(C)c1nn(CC(=O)NC23CC(N)(C2)C3)c(=O)c2cc3sc(Cl)cc3n12 [Ex 115, N-(3-Aminobicyclo[1.1.1]pentan-1-yl)-2-(2-chloro-5-isopropyl-8-oxothieno[2′,3′:4,5]pyrrolo[1,2-d][1,2,4]triazin-7(8H)-yl)acetamide]
IC50 (NLRP3 inflammasome): 172 nM
IC50 [1]: > 100000 nM

CC(C)c1nn(CC(=O)N[C@@H]2CCC(=O)NC2)c(=O)c2cc3sc(Cl)cc3n12 [Ex 19, (R)-2-(2-Chloro-5-isopropyl-8-oxothieno[2′,3′:4,5]pyrrolo[1,2-d][1,2,4]triazin-7(8H)-yl)-N-(6-oxopiperidin-3-yl)acetamide]
IC50 (NLRP3 inflammasome): 48.6 nM
IC50 [1]: > 100000 nM

CC(C)c1nn(CC(=O)N[C@@H]2CCNC2)c(=O)c2cc3sc(Cl)cc3n12 [Ex 103, (R)-2-(2-Chloro-5-isopropyl-8-oxothieno[2′,3′:4,5]pyrrolo[1,2-d][1,2,4]triazin-7(8H)-yl)-N-(pyrrolidin-3-yl)acetamide]
IC50 (NLRP3 inflammasome): 190 nM
IC50 [1]: > 100000 nM

CC(C)c1nn(CC(=O)N[C@H]2C[C@@](C)(O)C2)c(=O)c2cc3sc(Cl)cc3n12 [Ex 72, 2-(2-Chloro-5-isopropyl-8-oxothieno[2′,3′:4,5]pyrrolo[1,2-d][1,2,4]triazin-7(8H)-yl)-N-((1s,3s)-3-hydroxy-3-methylcyclobutyl)acetamide]
IC50 (NLRP3 inflammasome): 0.4 nM
IC50 [1]: > 100000 nM

Cc1cc2c(cc3c(=O)n(CC(=O)N[C@@H]4CCCNC4)nc(C(C)C)n32)s1 [Ex 38, (R)-2-(5-Isopropyl-2-methyl-8-oxothieno[2′,3′:4,5]pyrrolo[1,2-d][1,2,4]triazin-7(8H)-yl)-N-(piperidin-3-yl)acetamide]
IC50 (NLRP3 inflammasome): 88 nM
IC50 [1]: > 100000 nM

CC(C)c1nn(CC(=O)N[C@@H]2CCCN(CCO)C2)c(=O)c2cc3sc(Cl)cc3n12 [Ex 133, (R)-2-(2-Chloro-5-isopropyl-8-oxothieno[2′,3′:4,5]pyrrolo[1,2-d][1,2,4]triazin-7(8H)-yl)-N-(1-(2-hydroxyethyl)piperidin-3-yl)acetamide]
IC50 (NLRP3 inflammasome): 20.5 nM
IC50 [1]: > 100000 nM

CC(O)c1nn(CC(=O)Nc2cccnc2)c(=O)c2cc3sc(Cl)cc3n12 (stereo not drawn) [Ex 42, 2-(2-Chloro-5-(1-hydroxyethyl)-8-oxothieno[2′,3′:4,5]pyrrolo[1,2-d][1,2,4]triazin-7(8H)-yl)-N-(pyridin-3-yl)acetamide]
IC50 (NLRP3 inflammasome): 1100 nM
IC50 [1]: > 100000 nM

CC(C)(O)c1nn(CC(=O)NC2CC3(COC3)C2)c(=O)c2cc3sc(Cl)cc3n12 [Ex 26, 2-(2-Chloro-5-(2-hydroxypropan-2-yl)-8-oxothieno[2′,3′:4,5]pyrrolo[1,2-d][1,2,4]triazin-7(8H)-yl)-N-(2-oxaspiro[3.3]heptan-6-yl)acetamide]
IC50 (NLRP3 inflammasome): 46.4 nM
IC50 [1]: > 100000 nM

CC(C)c1nn(CC(=O)N[C@@H]2CCCN(C3CC3)C2)c(=O)c2cc3sc(Cl)cc3n12 [Ex 124, (R)-2-(2-Chloro-5-isopropyl-8-oxothieno[2′,3′:4,5]pyrrolo[1,2-d][1,2,4]triazin-7(8H)-yl)-N-(1-cyclopropylpiperidin-3-yl)acetamide]
IC50 (NLRP3 inflammasome): 0.9 nM
IC50 [1]: > 100000 nM

CC(C)(O)c1nn(CC(=O)N[C@@H]2CCC[C@@H](O)C2)c(=O)c2cc3sc(Cl)cc3n12 [Ex 64, 2-(2-Chloro-5-(2-hydroxypropan-2-yl)-8-oxothieno[2′,3′:4,5]pyrrolo[1,2-d][1,2,4]triazin-7(8H)-yl)-N-((1R,3R)-3-hydroxycyclohexyl)acetamide]
IC50 (NLRP3 inflammasome): 3.4 nM
IC50 [1]: > 100000 nM

CC(C)c1nn(CC(=O)N[C@@H]2CCCNC2)c(=O)c2cc3sc(F)cc3n12 [Ex 31, (R)-2-(2-Fluoro-5-isopropyl-8-oxothieno[2′,3′:4,5]pyrrolo[1,2-d][1,2,4]triazin-7(8H)-yl)-N-(piperidin-3-yl)acetamide hydrochloride]
IC50 (NLRP3 inflammasome): 90.5 nM
IC50 [1]: > 100000 nM

CC(C)c1nn(CC(=O)N[C@@H]2CCCN(C[C@@H](C)O)C2)c(=O)c2cc3sc(Cl)cc3n12 [Ex 128, 2-(2-Chloro-5-isopropyl-8-oxothieno[2′,3′:4,5]pyrrolo[1,2-d][1,2,4]triazin-7(8H)-yl)-N—((R)-1-((R)-2-hydroxypropyl)piperidin-3-yl)acetamide]
IC50 (NLRP3 inflammasome): 4.5 nM
IC50 [1]: > 100000 nM

O=C(Cn1nc(C2CC2)n2c(cc3sc(Cl)cc32)c1=O)N[C@@H]1CCCNC1 [Ex 36, (R)-2-(2-Chloro-5-cyclopropyl-8-oxothieno[2′,3′:4,5]pyrrolo[1,2-d][1,2,4]triazin-7(8H)-yl)-N-(piperidin-3-yl)acetamide hydrochloride]
IC50 (NLRP3 inflammasome): 109 nM
IC50 [1]: > 100000 nM
